In paper PMC11576293, “New series of 4,6-diaryl pyrimidines: facile synthesis and antiproliferative activity as dual EGFR/VEGFR-2 inhibitors” (Frontiers in Chemistry, 2024):

Columns and labels:
Test in all cases: NCI-60 single-dose screen
Type in all cases: cell-based
ACHN 1 = details: Homo sapiens, single dose 10 µM, '-' = no inhibition, read-out: % Growth Inhibition
Experimental: (§1) The National Cancer Institute’s Developmental Therapeutic Program (www.dtp.nci.nih.gov) has tested compounds 9–29 (except compounds 21 and 22) against 60 cancer cell lines from nine types (leukemia, lung, colon, CNS, melanoma, ovarian, renal, prostate, and breast cancer) at a single dose (10 μM) ([El-Sherief et al., 2018]). […] The most sensitive cells included leukemia (SR, K-562, and MOLT-4), lung (NCI-H522, […], and EKVX), breast (MCF-7 and T-47D), colon (HCT-15 and HT-29), and ovarian (NCI/ADR-RES).
(§2) The National Cancer Institute’s Developmental Therapeutic Program (www.dtp.nci.nih.gov) evaluated compounds 9–29 (excluding 21 and 22) against 60 cancer cell lines from nine categories (leukemia, lung, colon, CNS, melanoma, ovarian, renal, prostate, and breast cancer) at a single dose (10 μM) ([El-Sherief et al., 2018]). See Supplementary Material A1 for more details.

EKVX = details: Homo sapiens, single dose 10 µM, '-' = no inhibition, read-out: % Growth Inhibition
Experimental: as §1, §2

SN12C = details: Homo sapiens, single dose 10 µM, '-' = no inhibition, read-out: % Growth Inhibition
Experimental: as §1, §2

TK-10 = details: Homo sapiens, single dose 10 µM, '-' = no inhibition, read-out: % Growth Inhibition
Experimental: as §1, §2

UACC-62 = details: Homo sapiens, single dose 10 µM, '-' = no inhibition, read-out: % Growth Inhibition
Experimental: as §1, §2

SK-OV-3 = details: Homo sapiens, single dose 10 µM, '-' = no inhibition, read-out: % Growth Inhibition
Experimental: as §1, §2

SK-MEL-2 = details: Homo sapiens, single dose 10 µM, '-' = no inhibition, read-out: % Growth Inhibition
Experimental: as §1, §2

OVCAR-5 = details: Homo sapiens, single dose 10 µM, '-' = no inhibition, read-out: % Growth Inhibition
Experimental: as §1, §2

RPMI-8226 = details: Homo sapiens, single dose 10 µM, '-' = no inhibition, read-out: % Growth Inhibition
Experimental: as §1, §2

HOP-92 = details: Homo sapiens, single dose 10 µM, '-' = no inhibition, read-out: % Growth Inhibition
Experimental: as §1, §2

SK-MEL-28 = details: Homo sapiens, single dose 10 µM, '-' = no inhibition, read-out: % Growth Inhibition
Experimental: as §1, §2

UACC-257 = details: Homo sapiens, single dose 10 µM, '-' = no inhibition, read-out: % Growth Inhibition
Experimental: as §1, §2

KM12 = details: Homo sapiens, single dose 10 µM, '-' = no inhibition, read-out: % Growth Inhibition
Experimental: as §1, §2

MCF7 = details: Homo sapiens, single dose 10 µM, '-' = no inhibition, read-out: % Growth Inhibition
Experimental: as §1, §2

SNB-19 = details: Homo sapiens, single dose 10 µM, '-' = no inhibition, read-out: % Growth Inhibition
Experimental: as §1, §2

M14 = details: Homo sapiens, single dose 10 µM, '-' = no inhibition, read-out: % Growth Inhibition
Experimental: as §1, §2

MDA-MB-468 = details: Homo sapiens, single dose 10 µM, '-' = no inhibition, read-out: % Growth Inhibition
Experimental: as §1, §2

NCI-H522 = details: Homo sapiens, single dose 10 µM, '-' = no inhibition, read-out: % Growth Inhibition
Experimental: as §1, §2

HCT-116 = details: Homo sapiens, single dose 10 µM, '-' = no inhibition, read-out: % Growth Inhibition
Experimental: as §1, §2

UO-31 = details: Homo sapiens, single dose 10 µM, '-' = no inhibition, read-out: % Growth Inhibition
Experimental: as §1, §2

SK-MEL-5 = details: Homo sapiens, single dose 10 µM, '-' = no inhibition, read-out: % Growth Inhibition
Experimental: as §1, §2

HT29 = details: Homo sapiens, HT-29, single dose 10 µM, '-' = no inhibition, read-out: % Growth Inhibition
Experimental: as §1, §2

NCI/ADR-RES = details: Homo sapiens, single dose 10 µM, '-' = no inhibition, read-out: % Growth Inhibition
Experimental: as §1, §2

SF-539 = details: Homo sapiens, single dose 10 µM, '-' = no inhibition, read-out: % Growth Inhibition
Experimental: as §1, §2

BT-549 = details: Homo sapiens, single dose 10 µM, '-' = no inhibition, read-out: % Growth Inhibition
Experimental: as §1, §2

CCRF-CEM = details: Homo sapiens, single dose 10 µM, '-' = no inhibition, read-out: % Growth Inhibition
Experimental: as §1, §2

U251 = details: Homo sapiens, U-251, single dose 10 µM, '-' = no inhibition, read-out: % Growth Inhibition
Experimental: as §1, §2

HOP-62 = details: Homo sapiens, single dose 10 µM, '-' = no inhibition, read-out: % Growth Inhibition
Experimental: as §1, §2

RXF 393 = details: Homo sapiens, single dose 10 µM, '-' = no inhibition, read-out: % Growth Inhibition
Experimental: as §1, §2

OVCAR-3 = details: Homo sapiens, single dose 10 µM, '-' = no inhibition, read-out: % Growth Inhibition
Experimental: as §1, §2

A549/ATCC = details: Homo sapiens, single dose 10 µM, '-' = no inhibition, read-out: % Growth Inhibition
Experimental: as §1, §2

SNB-75 = details: Homo sapiens, single dose 10 µM, '-' = no inhibition, read-out: % Growth Inhibition
Experimental: as §1, §2

HCT-15 = details: Homo sapiens, single dose 10 µM, '-' = no inhibition, read-out: % Growth Inhibition
Experimental: as §1, §2

T-47D = details: Homo sapiens, T47D, single dose 10 µM, '-' = no inhibition, read-out: % Growth Inhibition
Experimental: as §1, §2

HS 578T = details: Homo sapiens, single dose 10 µM, '-' = no inhibition, read-out: % Growth Inhibition
Experimental: as §1, §2

IGROV1 = details: Homo sapiens, IGROV-1, single dose 10 µM, '-' = no inhibition, read-out: % Growth Inhibition
Experimental: as §1, §2

NCI-H460 = details: Homo sapiens, single dose 10 µM, '-' = no inhibition, read-out: % Growth Inhibition
Experimental: as §1, §2

SF-268 = details: Homo sapiens, single dose 10 µM, '-' = no inhibition, read-out: % Growth Inhibition
Experimental: as §1, §2

786-0 = details: Homo sapiens, single dose 10 µM, '-' = no inhibition, read-out: % Growth Inhibition
Experimental: as §1, §2

SW-620 = details: Homo sapiens, single dose 10 µM, '-' = no inhibition, read-out: % Growth Inhibition
Experimental: as §1, §2

CAKI-1 = details: Homo sapiens, single dose 10 µM, '-' = no inhibition, read-out: % Growth Inhibition
Experimental: as §1, §2

MOLT-4 = details: Homo sapiens, single dose 10 µM, '-' = no inhibition, read-out: % Growth Inhibition
Experimental: as §1, §2

HCC-2998 = details: Homo sapiens, single dose 10 µM, '-' = no inhibition, read-out: % Growth Inhibition
Experimental: as §1, §2

A498 = details: Homo sapiens, single dose 10 µM, '-' = no inhibition, read-out: % Growth Inhibition
Experimental: as §1, §2

MDA-MB-435 = details: Homo sapiens, single dose 10 µM, '-' = no inhibition, read-out: % Growth Inhibition
Experimental: as §1, §2

PC-3 = details: Homo sapiens, single dose 10 µM, '-' = no inhibition, read-out: % Growth Inhibition
Experimental: as §1, §2

MALME-3M = details: Homo sapiens, single dose 10 µM, '-' = no inhibition, read-out: % Growth Inhibition
Experimental: as §1, §2

SF-295 = details: Homo sapiens, single dose 10 µM, '-' = no inhibition, read-out: % Growth Inhibition
Experimental: as §1, §2

## C=CCSc1nc(-c2ccc(Cl)cc2)cc(-c2ccc(OC)cc2)n1 [Compound 13, 2-(Allylthio)-4-(4-chlorophenyl)-6-(4-methoxyphenyl)pyrimidine]
ACHN 1
  inhibition at 10 µM: < 0%
EKVX
  inhibition at 10 µM: 2.11%
SN12C
  inhibition at 10 µM: 6.62%
TK-10
  inhibition at 10 µM: < 0%
UACC-62
  inhibition at 10 µM: 26.2%
SK-OV-3
  inhibition at 10 µM: < 0%
SK-MEL-2
  inhibition at 10 µM: 4.96%
OVCAR-5
  inhibition at 10 µM: < 0%
RPMI-8226
  inhibition at 10 µM: 4.91%
HOP-92
  inhibition at 10 µM: < 0%
SK-MEL-28
  inhibition at 10 µM: < 0%
UACC-257
  inhibition at 10 µM: < 0%
KM12
  inhibition at 10 µM: 0.8%
MCF7
  inhibition at 10 µM: < 0%
SNB-19
  inhibition at 10 µM: 6.79%
M14
  inhibition at 10 µM: 4.04%
MDA-MB-468
  inhibition at 10 µM: 16.2%
NCI-H522
  inhibition at 10 µM: 10.2%
HCT-116
  inhibition at 10 µM: 5.47%
UO-31
  inhibition at 10 µM: 18.9%
SK-MEL-5
  inhibition at 10 µM: 1%
HT29
  inhibition at 10 µM: 17.2%
NCI/ADR-RES
  inhibition at 10 µM: 6.28%
SF-539
  inhibition at 10 µM: < 0%
BT-549
  inhibition at 10 µM: < 0%
CCRF-CEM
  inhibition at 10 µM: 3.79%
U251
  inhibition at 10 µM: < 0%
HOP-62
  inhibition at 10 µM: < 0%
RXF 393
  inhibition at 10 µM: 0.35%
OVCAR-3
  inhibition at 10 µM: < 0%
A549/ATCC
  inhibition at 10 µM: < 0%
SNB-75
  inhibition at 10 µM: < 0%
HCT-15
  inhibition at 10 µM: 7.93%
T-47D
  inhibition at 10 µM: 18.4%
HS 578T
  inhibition at 10 µM: < 0%
IGROV1
  inhibition at 10 µM: < 0%
NCI-H460
  inhibition at 10 µM: 0.1%
SF-268
  inhibition at 10 µM: < 0%
786-0
  inhibition at 10 µM: 3.01%
SW-620
  inhibition at 10 µM: < 0%
CAKI-1
  inhibition at 10 µM: 14.8%
MOLT-4
  inhibition at 10 µM: 14.3%
HCC-2998
  inhibition at 10 µM: < 0%
A498
  inhibition at 10 µM: < 0%
MDA-MB-435
  inhibition at 10 µM: 5.34%
PC-3
  inhibition at 10 µM: 1.15%
MALME-3M
  inhibition at 10 µM: < 0%
SF-295
  inhibition at 10 µM: 1.47%

## COc1ccc(-c2cc(-c3ccc(Cl)cc3)nc(SCc3ccccc3)n2)cc1 [Compound 14, 2-(Benzylthio)-4-(4-chlorophenyl)-6-(4-methoxyphenyl)pyrimidine]
ACHN 1
  inhibition at 10 µM: 11%
EKVX
  inhibition at 10 µM: 2.76%
SN12C
  inhibition at 10 µM: 10.4%
TK-10
  inhibition at 10 µM: < 0%
UACC-62
  inhibition at 10 µM: < 0%
SK-OV-3
  inhibition at 10 µM: < 0%
SK-MEL-2
  inhibition at 10 µM: 7.79%
OVCAR-5
  inhibition at 10 µM: 2.5%
RPMI-8226
  inhibition at 10 µM: < 0%
HOP-92
  inhibition at 10 µM: < 0%
SK-MEL-28
  inhibition at 10 µM: < 0%
UACC-257
  inhibition at 10 µM: < 0%
KM12
  inhibition at 10 µM: < 0%
MCF7
  inhibition at 10 µM: < 0%
SNB-19
  inhibition at 10 µM: < 0%
M14
  inhibition at 10 µM: < 0%
MDA-MB-468
  inhibition at 10 µM: < 0%
NCI-H522
  inhibition at 10 µM: < 0%
HCT-116
  inhibition at 10 µM: < 0%
UO-31
  inhibition at 10 µM: < 0%
SK-MEL-5
  inhibition at 10 µM: 2.06%
HT29
  inhibition at 10 µM: 8.96%
NCI/ADR-RES
  inhibition at 10 µM: < 0%
SF-539
  inhibition at 10 µM: < 0%
BT-549
  inhibition at 10 µM: < 0%
CCRF-CEM
  inhibition at 10 µM: < 0%
U251
  inhibition at 10 µM: < 0%
HOP-62
  inhibition at 10 µM: < 0%
RXF 393
  inhibition at 10 µM: < 0%
OVCAR-3
  inhibition at 10 µM: 6.22%
A549/ATCC
  inhibition at 10 µM: 2.08%
SNB-75
  inhibition at 10 µM: < 0%
HCT-15
  inhibition at 10 µM: 4.95%
T-47D
  inhibition at 10 µM: 14.4%
HS 578T
  inhibition at 10 µM: < 0%
IGROV1
  inhibition at 10 µM: < 0%
NCI-H460
  inhibition at 10 µM: < 0%
SF-268
  inhibition at 10 µM: < 0%
786-0
  inhibition at 10 µM: < 0%
SW-620
  inhibition at 10 µM: < 0%
CAKI-1
  inhibition at 10 µM: 2.18%
MOLT-4
  inhibition at 10 µM: 4.54%
HCC-2998
  inhibition at 10 µM: < 0%
A498
  inhibition at 10 µM: < 0%
MDA-MB-435
  inhibition at 10 µM: 3.68%
PC-3
  inhibition at 10 µM: 20.7%
MALME-3M
  inhibition at 10 µM: < 0%
SF-295
  inhibition at 10 µM: < 0%
